Assay results: paper PMC5761851, “Application of a phenotypic drug discovery strategy to identify biological and chemical starting points for inhibition of TSLP production in lung epithelial cells” (PLoS ONE, 2018)
“And” between values parts separate entries of the source, which are not always exact repeats. Equal values may be shown once.

Key:
Assay in all cases: kinase selectivity panel
Format in all cases: biochemical
mTOR = biological target: T1, mTOR (Homo sapiens, UniProt P42345); settings: for remaining activity at 10 µM: read-out: percentage of control activity (POC), mTOR
T1 construct: Eurofins Pharma Discovery Services (contract assay service)
Method in brief: (§1)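 First, 125 representative kinases were exposed to 10 μM compound in duplicate; next, selected activities were titrated over 9 concentrations in duplicate, and IC50 values were calculated.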

SRPK1 = biological target: T2, SRPK1 (Homo sapiens, UniProt Q96SB4); settings: read-out: percentage of control activity (POC), SRPK1
T2 construct: purchased Eurofins Pharma Discovery Services (KinaseProfiler; Cerep BioPrint panel)
Method in brief: as §1

PI3K (p120g) = biological target: T3, PI3K (p120g) (Homo sapiens, UniProt P48736); settings: for remaining activity at 10 µM: read-out: percentage of control activity (POC), PI3K (p120g)
T3 construct: Eurofins Pharma Discovery Services (contract assay service)
T3 sequence (P48736 whole entry): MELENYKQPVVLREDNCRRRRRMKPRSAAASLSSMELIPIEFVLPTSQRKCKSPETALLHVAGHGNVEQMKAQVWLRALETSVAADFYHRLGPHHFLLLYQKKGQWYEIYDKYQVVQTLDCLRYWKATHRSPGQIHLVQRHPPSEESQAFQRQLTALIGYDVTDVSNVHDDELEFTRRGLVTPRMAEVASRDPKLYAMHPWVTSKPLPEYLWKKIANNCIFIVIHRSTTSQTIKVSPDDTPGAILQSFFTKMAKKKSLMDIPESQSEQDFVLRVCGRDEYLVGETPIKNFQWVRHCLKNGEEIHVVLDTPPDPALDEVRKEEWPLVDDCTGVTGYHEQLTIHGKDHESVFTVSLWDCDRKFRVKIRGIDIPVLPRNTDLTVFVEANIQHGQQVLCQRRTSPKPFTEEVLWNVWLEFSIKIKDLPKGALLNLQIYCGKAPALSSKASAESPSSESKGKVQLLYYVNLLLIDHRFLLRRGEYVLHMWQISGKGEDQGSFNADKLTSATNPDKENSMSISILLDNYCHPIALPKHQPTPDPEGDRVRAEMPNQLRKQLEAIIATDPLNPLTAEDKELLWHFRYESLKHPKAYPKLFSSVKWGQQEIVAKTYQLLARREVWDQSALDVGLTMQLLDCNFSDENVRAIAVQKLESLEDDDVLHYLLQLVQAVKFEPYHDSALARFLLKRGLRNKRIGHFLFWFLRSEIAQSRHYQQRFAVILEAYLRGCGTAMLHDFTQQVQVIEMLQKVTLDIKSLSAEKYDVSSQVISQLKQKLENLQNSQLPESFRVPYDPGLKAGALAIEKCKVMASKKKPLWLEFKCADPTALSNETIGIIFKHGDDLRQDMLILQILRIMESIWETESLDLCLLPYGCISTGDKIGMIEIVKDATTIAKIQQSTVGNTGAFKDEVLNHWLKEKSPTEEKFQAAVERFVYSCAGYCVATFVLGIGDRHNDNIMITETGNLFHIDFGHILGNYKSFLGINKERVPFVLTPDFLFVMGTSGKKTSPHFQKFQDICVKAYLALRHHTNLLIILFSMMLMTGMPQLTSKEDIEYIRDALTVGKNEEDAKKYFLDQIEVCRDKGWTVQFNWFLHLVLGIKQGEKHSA
Method in brief: as §1

Ret = biological target: T4, Ret (Homo sapiens, UniProt P07949); settings: read-out: percentage of control activity (POC), Ret
T4 construct: purchased Eurofins Pharma Discovery Services (KinaseProfiler; Cerep BioPrint panel)
Method in brief: as §1

SGK = biological target: T5, SGK (Homo sapiens, UniProt O00141); settings: read-out: percentage of control activity (POC), SGK
T5 construct: purchased Eurofins Pharma Discovery Services (KinaseProfiler; Cerep BioPrint panel)
T5 sequence (O00141 1-431): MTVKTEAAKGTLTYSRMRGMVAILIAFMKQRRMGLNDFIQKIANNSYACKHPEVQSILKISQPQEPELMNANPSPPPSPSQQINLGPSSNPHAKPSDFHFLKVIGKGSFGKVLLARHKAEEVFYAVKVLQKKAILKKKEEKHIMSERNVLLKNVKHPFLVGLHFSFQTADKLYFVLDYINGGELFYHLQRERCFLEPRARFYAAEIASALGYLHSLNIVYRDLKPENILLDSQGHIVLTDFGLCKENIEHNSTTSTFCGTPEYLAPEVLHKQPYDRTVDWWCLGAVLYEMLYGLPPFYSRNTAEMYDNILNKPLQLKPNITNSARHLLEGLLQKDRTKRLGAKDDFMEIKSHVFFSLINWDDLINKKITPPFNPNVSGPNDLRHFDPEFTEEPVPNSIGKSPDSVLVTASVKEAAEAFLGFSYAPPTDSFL
Method in brief: as §1

cKit = biological target: T6, cKit (Homo sapiens, UniProt P10721); settings: read-out: percentage of control activity (POC), cKit
T6 construct: purchased Eurofins Pharma Discovery Services (KinaseProfiler; Cerep BioPrint panel)
Method in brief: as §1

CK1γ1 = biological target: T7, CK1γ1 (Homo sapiens, UniProt Q9HCP0); settings: read-out: percentage of control activity (POC), CK1γ1
T7 construct: purchased Eurofins Pharma Discovery Services (KinaseProfiler; Cerep BioPrint panel)
Method in brief: as §1

FGFR1 = biological target: T8, FGFR1 (Homo sapiens, UniProt P11362); settings: read-out: percentage of control activity (POC), FGFR1
T8 construct: purchased Eurofins Pharma Discovery Services (KinaseProfiler; Cerep BioPrint panel)
T8 sequence (P11362 22-822): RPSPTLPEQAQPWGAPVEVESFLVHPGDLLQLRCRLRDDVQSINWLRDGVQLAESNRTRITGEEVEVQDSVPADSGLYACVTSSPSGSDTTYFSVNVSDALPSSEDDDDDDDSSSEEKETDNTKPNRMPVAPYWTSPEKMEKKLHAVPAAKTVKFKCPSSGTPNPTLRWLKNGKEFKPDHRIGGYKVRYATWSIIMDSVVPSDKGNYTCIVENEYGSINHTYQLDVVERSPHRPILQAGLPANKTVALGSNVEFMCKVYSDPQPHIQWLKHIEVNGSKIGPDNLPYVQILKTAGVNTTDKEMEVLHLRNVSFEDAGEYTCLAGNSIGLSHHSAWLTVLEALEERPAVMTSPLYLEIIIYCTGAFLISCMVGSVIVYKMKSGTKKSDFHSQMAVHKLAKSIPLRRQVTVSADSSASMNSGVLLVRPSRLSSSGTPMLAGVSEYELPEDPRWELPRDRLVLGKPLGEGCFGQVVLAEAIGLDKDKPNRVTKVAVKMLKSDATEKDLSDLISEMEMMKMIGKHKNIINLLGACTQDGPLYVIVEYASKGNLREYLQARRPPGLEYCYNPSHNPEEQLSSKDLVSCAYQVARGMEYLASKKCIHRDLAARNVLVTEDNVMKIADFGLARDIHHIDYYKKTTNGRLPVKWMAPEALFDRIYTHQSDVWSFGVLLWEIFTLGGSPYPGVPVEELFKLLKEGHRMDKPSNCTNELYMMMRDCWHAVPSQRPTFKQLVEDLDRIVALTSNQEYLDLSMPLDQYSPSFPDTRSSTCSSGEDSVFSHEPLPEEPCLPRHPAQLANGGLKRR
Method in brief: as §1

PKG1α = biological target: T9, PKG1α (Homo sapiens, UniProt Q13976); settings: read-out: percentage of control activity (POC), PKG1α
T9 construct: purchased Eurofins Pharma Discovery Services (KinaseProfiler; Cerep BioPrint panel)
T9 sequence (Q13976 1-671): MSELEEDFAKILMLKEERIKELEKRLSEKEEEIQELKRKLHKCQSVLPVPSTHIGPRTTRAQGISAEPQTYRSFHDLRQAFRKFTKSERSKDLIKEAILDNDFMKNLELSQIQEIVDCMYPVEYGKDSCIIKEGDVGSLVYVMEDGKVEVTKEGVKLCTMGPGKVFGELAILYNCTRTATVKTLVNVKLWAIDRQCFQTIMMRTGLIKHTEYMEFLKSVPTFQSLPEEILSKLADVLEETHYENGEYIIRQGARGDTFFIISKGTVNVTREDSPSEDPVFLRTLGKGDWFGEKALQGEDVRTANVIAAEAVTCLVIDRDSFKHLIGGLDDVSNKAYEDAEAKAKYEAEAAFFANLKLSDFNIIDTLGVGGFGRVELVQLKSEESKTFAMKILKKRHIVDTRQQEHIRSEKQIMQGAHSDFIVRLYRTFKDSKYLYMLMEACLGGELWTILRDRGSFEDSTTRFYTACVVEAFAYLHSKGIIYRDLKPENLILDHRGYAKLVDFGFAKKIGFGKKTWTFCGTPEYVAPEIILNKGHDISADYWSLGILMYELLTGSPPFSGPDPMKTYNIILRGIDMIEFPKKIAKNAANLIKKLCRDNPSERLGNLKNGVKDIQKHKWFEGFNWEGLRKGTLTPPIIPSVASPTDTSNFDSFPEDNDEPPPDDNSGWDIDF
Method in brief: as §1

SAPK4 = biological target: T10, SAPK4 (Homo sapiens, UniProt O15264); settings: read-out: percentage of control activity (POC), SAPK4
T10 construct: purchased Eurofins Pharma Discovery Services (KinaseProfiler; Cerep BioPrint panel)
T10 sequence (O15264 1-365): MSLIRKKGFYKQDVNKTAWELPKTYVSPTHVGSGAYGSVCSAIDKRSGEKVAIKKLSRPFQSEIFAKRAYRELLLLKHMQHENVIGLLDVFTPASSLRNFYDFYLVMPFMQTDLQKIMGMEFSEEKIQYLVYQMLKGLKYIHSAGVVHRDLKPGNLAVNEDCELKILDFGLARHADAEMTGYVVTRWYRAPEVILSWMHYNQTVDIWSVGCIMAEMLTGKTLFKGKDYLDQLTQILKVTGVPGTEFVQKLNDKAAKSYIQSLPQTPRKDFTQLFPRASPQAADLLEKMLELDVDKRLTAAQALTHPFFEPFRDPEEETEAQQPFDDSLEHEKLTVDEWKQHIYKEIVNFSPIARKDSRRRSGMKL
Method in brief: as §1

RIPK2 = biological target: T11, RIPK2 (Homo sapiens, UniProt O43353); settings: read-out: percentage of control activity (POC), RIPK2
T11 construct: purchased Eurofins Pharma Discovery Services (KinaseProfiler; Cerep BioPrint panel)
T11 sequence (O43353 whole entry): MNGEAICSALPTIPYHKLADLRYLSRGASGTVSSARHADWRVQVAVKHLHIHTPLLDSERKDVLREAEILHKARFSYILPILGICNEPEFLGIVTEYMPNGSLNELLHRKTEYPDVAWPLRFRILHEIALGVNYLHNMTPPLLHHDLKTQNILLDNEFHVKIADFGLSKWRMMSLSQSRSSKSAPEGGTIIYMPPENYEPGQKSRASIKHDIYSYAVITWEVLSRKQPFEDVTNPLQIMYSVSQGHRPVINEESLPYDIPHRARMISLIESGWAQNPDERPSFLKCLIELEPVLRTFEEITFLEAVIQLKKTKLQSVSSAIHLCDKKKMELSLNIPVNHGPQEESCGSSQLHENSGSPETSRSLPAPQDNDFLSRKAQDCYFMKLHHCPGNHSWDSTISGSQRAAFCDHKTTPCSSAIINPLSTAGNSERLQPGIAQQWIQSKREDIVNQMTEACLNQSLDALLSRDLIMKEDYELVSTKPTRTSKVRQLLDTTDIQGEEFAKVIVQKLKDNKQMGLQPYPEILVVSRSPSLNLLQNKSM
Method in brief: as §1

p70S6K = biological target: T12, p70S6K (Homo sapiens, UniProt P23443); settings: read-out: percentage of control activity (POC), p70S6K
T12 construct: purchased Eurofins Pharma Discovery Services (KinaseProfiler; Cerep BioPrint panel)
Method in brief: as §1

Met = biological target: T13, Met (Homo sapiens, UniProt P08581); settings: read-out: percentage of control activity (POC), Met
T13 construct: purchased Eurofins Pharma Discovery Services (KinaseProfiler; Cerep BioPrint panel)
T13 sequence (P08581 25-1390): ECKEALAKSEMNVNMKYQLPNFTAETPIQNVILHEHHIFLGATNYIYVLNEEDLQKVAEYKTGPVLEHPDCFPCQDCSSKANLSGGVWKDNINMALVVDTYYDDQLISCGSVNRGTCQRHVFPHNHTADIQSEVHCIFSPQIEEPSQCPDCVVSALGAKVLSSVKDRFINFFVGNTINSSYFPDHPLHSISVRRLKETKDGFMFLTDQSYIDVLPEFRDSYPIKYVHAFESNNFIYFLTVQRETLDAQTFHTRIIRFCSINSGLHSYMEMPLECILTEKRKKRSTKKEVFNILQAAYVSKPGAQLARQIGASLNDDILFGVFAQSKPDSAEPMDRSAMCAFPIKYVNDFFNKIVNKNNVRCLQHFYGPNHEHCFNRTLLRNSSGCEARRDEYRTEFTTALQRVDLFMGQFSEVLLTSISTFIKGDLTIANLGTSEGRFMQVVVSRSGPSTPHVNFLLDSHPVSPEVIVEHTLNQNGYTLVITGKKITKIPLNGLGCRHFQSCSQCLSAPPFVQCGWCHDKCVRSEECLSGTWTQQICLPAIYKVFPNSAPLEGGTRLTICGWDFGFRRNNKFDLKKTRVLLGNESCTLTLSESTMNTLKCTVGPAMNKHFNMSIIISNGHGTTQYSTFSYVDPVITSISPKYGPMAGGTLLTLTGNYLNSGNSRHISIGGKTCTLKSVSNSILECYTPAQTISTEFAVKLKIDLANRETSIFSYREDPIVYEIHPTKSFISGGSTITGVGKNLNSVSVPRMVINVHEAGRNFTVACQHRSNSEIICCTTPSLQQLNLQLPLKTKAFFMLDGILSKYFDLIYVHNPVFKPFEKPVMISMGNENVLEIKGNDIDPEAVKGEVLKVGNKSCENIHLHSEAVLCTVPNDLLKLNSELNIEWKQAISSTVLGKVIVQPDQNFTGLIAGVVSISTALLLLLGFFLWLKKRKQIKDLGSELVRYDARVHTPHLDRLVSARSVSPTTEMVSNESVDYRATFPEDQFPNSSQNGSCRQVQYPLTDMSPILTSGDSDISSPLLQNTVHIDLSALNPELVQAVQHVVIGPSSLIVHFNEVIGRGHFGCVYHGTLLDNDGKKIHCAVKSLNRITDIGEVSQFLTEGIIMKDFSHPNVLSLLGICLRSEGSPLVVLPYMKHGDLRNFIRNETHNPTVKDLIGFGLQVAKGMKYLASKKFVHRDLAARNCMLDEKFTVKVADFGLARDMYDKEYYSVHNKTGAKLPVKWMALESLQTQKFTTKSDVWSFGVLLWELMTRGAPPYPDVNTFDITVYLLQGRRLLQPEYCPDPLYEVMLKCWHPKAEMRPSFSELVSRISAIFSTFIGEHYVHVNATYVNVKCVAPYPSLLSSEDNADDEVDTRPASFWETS
Method in brief: as §1

MAPK1 = biological target: T14, MAPK1 (Homo sapiens, UniProt P27361); settings: read-out: percentage of control activity (POC), MAPK1
T14 construct: purchased Eurofins Pharma Discovery Services (KinaseProfiler; Cerep BioPrint panel)
T14 sequence (P27361 whole entry): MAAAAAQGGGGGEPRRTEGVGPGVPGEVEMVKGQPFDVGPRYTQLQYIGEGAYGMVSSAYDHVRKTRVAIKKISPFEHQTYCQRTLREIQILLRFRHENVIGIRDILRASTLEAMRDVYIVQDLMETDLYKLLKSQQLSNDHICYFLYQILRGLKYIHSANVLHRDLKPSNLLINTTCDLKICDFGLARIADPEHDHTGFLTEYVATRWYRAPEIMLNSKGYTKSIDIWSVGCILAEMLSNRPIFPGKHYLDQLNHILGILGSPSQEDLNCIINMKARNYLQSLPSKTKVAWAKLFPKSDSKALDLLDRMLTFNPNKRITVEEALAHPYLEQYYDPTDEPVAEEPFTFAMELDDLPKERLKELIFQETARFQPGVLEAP
Method in brief: as §1

TrkA = biological target: T15, TrkA (Homo sapiens, UniProt P04629); settings: for remaining activity at 10 µM: read-out: percentage of control activity (POC), TrkA
T15 construct: Eurofins Pharma Discovery Services (contract assay service)
T15 sequence (P04629 33-796, species assumed): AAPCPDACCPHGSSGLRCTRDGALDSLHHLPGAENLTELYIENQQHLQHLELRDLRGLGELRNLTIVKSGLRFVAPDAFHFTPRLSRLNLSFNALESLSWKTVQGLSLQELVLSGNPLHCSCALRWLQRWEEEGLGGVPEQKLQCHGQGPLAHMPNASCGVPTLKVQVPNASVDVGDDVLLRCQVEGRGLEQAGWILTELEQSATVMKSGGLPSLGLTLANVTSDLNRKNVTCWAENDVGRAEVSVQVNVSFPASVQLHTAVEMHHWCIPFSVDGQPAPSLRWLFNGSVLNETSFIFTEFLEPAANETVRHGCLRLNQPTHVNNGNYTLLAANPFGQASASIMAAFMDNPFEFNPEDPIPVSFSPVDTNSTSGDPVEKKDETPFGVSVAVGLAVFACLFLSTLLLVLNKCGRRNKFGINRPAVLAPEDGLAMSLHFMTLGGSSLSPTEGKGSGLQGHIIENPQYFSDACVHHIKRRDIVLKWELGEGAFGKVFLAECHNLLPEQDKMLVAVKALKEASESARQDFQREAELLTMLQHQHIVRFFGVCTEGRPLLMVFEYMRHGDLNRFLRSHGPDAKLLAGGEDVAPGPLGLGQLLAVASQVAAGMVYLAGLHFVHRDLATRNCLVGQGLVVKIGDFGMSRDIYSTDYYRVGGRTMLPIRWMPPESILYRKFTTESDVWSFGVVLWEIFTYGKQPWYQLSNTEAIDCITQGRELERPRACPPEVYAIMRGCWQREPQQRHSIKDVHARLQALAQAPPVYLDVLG
Method in brief: as §1

CDK7/cyclinH/MAT1 = biological target: T16, CDK7/cyclinH/MAT1 (Homo sapiens, UniProt P50613); settings: read-out: percentage of control activity (POC), CDK7/cyclinH/MAT1
T16 construct: purchased Eurofins Pharma Discovery Services (KinaseProfiler; Cerep BioPrint panel)
Method in brief: as §1

Structure (SMILES)	remaining activity at 10 µM (mTOR; 10 μM) [%]	remaining activity at 10 µM (SRPK1) [%]	remaining activity at 10 µM (PI3K (p120g); 10 μM) [%]	remaining activity at 10 µM (Ret) [%]	remaining activity at 10 µM (SGK) [%]	remaining activity at 10 µM (cKit) [%]	remaining activity at 10 µM (CK1γ1) [%]	remaining activity at 10 µM (FGFR1) [%]	remaining activity at 10 µM (PKG1α) [%]	remaining activity at 10 µM (SAPK4) [%]	remaining activity at 10 µM (RIPK2) [%]	remaining activity at 10 µM (p70S6K) [%]	remaining activity at 10 µM (Met) [%]	remaining activity at 10 µM (MAPK1) [%]	remaining activity at 10 µM (TrkA; 10 μM) [%]	remaining activity at 10 µM (CDK7/cyclinH/MAT1) [%]	further results
CC(C)(C)N1CCC(c2cc(-c3ccc(F)cc3Cl)c3cc[n+]([O-])c(-c4c(Cl)cccc4Cl)c3n2)CC1 [compound 2]	101	103	92	100	105	96	101	80	108	96	61	104	83	105	91	115	–
Cc1ccc(C(=O)NCC2CC2)cc1-c1ccc2c(c1)NC(=O)C21CCCC1 [compound 3]	99	92	85	89	99	88	98	95	102	94	94	95	86	88	67	104	–
Cn1cc(-c2cccc(-c3nc(C(=O)NC4C5CC6CC4CC(O)(C6)C5)c(N)nc3N)c2)cn1 (centres unmarked) [compound 4]	13	92	33	63	96	102	89	86	97	88	61	92	87	96	14	95	inhibition at 10 µM (mTOR; 10 μM): 87%; IC50 (mTOR; biochemical dose response, duplicate, read-out: Inhibition of indicated activity (IC50, μM): mTOR): ~1 µM and 0.964 µM; inhibition at 10 µM (PI3K (p120g); 10 μM, read-out: inhibition of PI3K (p120γ)): 67%; IC50 (PI3K (p120g); biochemical dose response, duplicate, read-out: Inhibition of indicated activity (IC50, μM): PI3K (p120γ)): 4.78 µM; inhibition at 10 µM (TrkA; 10 μM): 86%; IC50 (TrkA; biochemical dose response, duplicate, read-out: Inhibition of indicated activity (IC50, μM): TrkA): 3.23 µM
CS(=O)(=O)N1CCN(c2ccc(Nc3ncc(C(N)=O)c(NC4CC4)n3)cc2)CC1 [compound 5]	96	83	86	-1	64	1	25	3	66	32	81	54	45	34	1	71	–
COc1c(NC(=O)c2ccc(C)c(-c3nnc4c(NCC(C)(C)C)nccn34)c2)cc(C(C)(C)C)cc1NS(C)(=O)=O [compound 7, reference compound]	96	100	86	71	114	92	98	109	105	81	100	102	109	85	68	101	–
